Laboratory results from patent US11331299B2, “Medicinal use of serrulatane diterpenes” (The University of Sydney, priority 2016, dated 2022).
pIC50: −log10 of the molar value.

Key:
CYP2D6 = CYP2D6 (Homo sapiens, UniProt P10635); assay: in vitro; conditions: human liver microsomes, probe dextromethorphan
USP 10 (h) = USP 10 (h) (Homo sapiens, UniProt Q14694); assay: Epigenetic enzyme assay, Ubiquitin modifying enzymes; type: biochemical; conditions: 10 μM; read-out: % Inhibition of Control Values
JARID1C (h) = JARID1C (h) (Homo sapiens, UniProt P41229); assay: Epigenetic enzyme assay, Demethylases (KDMs); type: biochemical; conditions: read-out: % Inhibition of Control Values
JARID1C (h), sequence (P41229 whole entry): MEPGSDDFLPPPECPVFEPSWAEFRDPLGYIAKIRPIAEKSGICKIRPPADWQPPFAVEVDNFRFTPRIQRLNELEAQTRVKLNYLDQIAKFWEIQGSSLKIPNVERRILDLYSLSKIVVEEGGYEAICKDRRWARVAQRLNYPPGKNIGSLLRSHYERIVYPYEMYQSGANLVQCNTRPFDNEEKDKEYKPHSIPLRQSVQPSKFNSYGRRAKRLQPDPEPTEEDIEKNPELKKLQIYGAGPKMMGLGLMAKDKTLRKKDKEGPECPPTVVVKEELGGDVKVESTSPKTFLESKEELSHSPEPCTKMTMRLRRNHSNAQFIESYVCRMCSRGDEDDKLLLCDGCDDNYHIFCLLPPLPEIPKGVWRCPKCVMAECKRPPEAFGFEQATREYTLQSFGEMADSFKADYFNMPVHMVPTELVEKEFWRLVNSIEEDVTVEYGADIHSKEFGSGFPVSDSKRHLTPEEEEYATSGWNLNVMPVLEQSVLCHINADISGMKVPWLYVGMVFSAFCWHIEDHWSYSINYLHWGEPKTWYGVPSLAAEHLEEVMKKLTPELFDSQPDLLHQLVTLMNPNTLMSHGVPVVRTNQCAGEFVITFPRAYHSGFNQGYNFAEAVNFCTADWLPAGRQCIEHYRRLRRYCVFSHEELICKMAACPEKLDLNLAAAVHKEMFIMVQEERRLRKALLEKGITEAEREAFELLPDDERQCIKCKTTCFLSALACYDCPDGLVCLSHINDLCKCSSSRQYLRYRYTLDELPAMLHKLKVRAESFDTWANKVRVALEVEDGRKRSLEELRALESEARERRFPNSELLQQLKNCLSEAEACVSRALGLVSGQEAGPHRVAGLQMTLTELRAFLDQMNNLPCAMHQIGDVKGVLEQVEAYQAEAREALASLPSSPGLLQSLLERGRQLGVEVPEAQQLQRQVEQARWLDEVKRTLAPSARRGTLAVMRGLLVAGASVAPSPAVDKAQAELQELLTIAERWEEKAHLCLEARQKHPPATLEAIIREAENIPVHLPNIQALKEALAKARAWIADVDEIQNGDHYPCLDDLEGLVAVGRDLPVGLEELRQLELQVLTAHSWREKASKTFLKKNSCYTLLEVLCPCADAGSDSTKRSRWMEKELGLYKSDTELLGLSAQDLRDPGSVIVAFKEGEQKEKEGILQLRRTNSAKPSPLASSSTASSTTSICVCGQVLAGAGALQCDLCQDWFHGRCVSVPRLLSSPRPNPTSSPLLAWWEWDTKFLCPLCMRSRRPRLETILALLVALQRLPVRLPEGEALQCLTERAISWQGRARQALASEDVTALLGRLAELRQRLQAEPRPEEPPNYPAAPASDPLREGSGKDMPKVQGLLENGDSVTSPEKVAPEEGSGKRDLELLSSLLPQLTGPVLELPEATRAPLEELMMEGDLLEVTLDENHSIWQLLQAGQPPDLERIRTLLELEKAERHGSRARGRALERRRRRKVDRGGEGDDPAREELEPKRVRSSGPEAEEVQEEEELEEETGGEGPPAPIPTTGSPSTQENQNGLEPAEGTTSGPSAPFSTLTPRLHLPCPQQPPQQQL

MLL2(h) complex = assay: Epigenetic enzyme assay, Methyltransferases (MTs); type: biochemical, human; conditions: for % Inhibition of Control Values: 10 μM
[1] = molecular target: PIM1(h) (histone H3 full length substrate) (Homo sapiens, UniProt P11309); assay: Epigenetic enzyme assay, Kinases; type: biochemical; conditions: read-out: % Inhibition of Control Values
PIM1(h) (histone H3 full length substrate), sequence (P11309 whole entry): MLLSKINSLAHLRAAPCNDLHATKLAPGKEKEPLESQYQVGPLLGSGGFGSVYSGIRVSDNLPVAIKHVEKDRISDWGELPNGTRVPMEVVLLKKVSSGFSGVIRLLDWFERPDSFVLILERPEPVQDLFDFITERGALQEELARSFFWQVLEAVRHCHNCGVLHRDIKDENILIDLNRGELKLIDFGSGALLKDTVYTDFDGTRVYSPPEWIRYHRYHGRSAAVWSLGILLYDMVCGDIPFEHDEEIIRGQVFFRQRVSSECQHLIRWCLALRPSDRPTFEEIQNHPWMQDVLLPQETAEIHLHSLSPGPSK

pCAF(h) = pCAF(h) (Homo sapiens, UniProt Q92831); assay: Epigenetic enzyme assay, Histone acetyltransferases (HATs); type: biochemical; conditions: read-out: % Inhibition of Control Values
pCAF(h), sequence (Q92831 whole entry): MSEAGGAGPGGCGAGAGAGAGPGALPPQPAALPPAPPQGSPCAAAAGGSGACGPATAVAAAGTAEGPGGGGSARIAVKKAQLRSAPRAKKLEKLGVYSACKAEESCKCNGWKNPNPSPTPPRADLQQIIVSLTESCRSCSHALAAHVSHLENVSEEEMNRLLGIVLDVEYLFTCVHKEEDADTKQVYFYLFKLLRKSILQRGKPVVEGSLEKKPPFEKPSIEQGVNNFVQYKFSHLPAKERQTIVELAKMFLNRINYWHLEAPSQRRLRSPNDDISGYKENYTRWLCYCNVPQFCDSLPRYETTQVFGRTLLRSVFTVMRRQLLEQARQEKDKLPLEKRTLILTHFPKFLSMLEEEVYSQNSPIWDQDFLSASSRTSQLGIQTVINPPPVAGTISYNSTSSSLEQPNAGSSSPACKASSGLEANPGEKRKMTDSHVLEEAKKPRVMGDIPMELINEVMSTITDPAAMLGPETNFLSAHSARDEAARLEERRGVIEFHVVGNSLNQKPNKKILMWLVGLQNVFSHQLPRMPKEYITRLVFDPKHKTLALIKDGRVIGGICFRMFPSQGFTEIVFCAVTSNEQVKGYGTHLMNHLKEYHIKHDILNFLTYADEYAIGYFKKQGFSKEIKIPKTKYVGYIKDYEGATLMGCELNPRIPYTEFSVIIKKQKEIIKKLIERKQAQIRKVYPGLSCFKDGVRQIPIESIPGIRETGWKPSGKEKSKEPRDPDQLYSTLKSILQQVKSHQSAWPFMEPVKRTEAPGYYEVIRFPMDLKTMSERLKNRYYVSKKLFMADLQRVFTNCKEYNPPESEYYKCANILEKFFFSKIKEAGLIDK

DNMT1 (h) = DNMT1 (h) (Homo sapiens, UniProt P26358); assay: Epigenetic enzyme assay, DNA methyltransferases (DNMTs); type: biochemical; conditions: read-out: % Inhibition of Control Values
DNMT1 (h), sequence (P26358 whole entry, the tested form may be a part): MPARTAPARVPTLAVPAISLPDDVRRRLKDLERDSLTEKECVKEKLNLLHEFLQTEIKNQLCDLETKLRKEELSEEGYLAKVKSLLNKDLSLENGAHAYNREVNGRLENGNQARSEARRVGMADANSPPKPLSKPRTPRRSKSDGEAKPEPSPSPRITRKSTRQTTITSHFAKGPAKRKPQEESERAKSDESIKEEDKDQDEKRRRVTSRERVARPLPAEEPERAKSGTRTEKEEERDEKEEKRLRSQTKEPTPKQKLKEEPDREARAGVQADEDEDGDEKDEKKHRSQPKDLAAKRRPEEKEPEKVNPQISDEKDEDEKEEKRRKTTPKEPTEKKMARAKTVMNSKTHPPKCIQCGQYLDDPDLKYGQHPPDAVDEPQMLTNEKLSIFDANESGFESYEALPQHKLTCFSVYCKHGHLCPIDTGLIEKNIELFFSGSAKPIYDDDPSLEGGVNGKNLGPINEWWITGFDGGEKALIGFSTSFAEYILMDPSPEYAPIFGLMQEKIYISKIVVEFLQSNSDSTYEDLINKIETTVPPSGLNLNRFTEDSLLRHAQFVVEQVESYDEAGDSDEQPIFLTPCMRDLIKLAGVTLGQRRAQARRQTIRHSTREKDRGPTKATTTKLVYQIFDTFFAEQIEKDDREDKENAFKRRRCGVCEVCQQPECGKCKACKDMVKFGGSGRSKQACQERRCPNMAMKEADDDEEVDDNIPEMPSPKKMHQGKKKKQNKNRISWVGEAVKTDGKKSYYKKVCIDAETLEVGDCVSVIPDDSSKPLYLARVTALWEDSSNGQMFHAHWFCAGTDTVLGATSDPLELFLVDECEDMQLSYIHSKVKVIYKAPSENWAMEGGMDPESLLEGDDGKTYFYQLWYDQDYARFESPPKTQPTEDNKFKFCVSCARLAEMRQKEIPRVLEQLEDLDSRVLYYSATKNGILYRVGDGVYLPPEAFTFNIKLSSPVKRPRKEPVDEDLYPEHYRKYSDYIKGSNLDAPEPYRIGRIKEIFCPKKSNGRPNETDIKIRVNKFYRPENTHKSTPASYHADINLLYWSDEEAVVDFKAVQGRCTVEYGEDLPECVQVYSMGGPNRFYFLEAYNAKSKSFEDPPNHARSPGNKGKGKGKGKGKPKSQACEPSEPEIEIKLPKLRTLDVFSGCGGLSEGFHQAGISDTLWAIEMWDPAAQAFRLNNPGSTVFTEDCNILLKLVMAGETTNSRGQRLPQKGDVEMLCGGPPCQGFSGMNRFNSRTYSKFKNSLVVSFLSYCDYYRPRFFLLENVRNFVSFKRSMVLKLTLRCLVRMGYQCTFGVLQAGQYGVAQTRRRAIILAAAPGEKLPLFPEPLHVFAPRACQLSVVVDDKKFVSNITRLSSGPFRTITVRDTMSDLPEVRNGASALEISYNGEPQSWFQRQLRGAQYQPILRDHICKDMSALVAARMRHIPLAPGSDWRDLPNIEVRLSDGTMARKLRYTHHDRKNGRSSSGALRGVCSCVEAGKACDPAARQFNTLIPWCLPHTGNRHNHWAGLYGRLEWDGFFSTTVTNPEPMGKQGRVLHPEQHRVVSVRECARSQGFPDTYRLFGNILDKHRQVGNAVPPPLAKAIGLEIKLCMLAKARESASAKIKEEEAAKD

PHF20(1) Tudor domain = molecular target: T1, PHF20(1) Tudor domain (Homo sapiens, UniProt Q9BVI0); assay: Epigenetic binding assay, Tudor domain; conditions: read-out: % Inhibition of Control Specific Binding
T1 construct: Crystal structures of the Tudor domains of human PHF20; Eurofins CEREP (France), contract laboratory
T1 sequence (Q9BVI0 4-69 limits assumed): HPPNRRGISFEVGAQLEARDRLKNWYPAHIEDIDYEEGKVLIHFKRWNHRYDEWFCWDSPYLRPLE

BRD4(2) (h) bromodomain = molecular target: T2, BRD4(2) (h) bromodomain (Homo sapiens, UniProt O60885); assay: Epigenetic binding assay, Bromodomain; conditions: for inhibition at 10 µM: read-out: % Inhibition of Control Specific Binding
T2 construct: Bromodomain

CBX4 (h) chromodomain = molecular target: T3, CBX4 (h) chromodomain (Homo sapiens, UniProt O00257); assay: Epigenetic binding assay, Chromodomain; conditions: read-out: % Inhibition of Control Specific Binding
T3 construct: Recognition and specificity determinants of the human cbx chromodomains; Eurofins CEREP (France), contract laboratory
T3 sequence (O00257 11-69 limits assumed): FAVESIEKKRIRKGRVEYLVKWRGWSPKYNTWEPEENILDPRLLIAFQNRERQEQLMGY

[2] = molecular target: T4, Angiotensin Converting Enzyme (Oryctolagus cuniculus, UniProt P12822); assay: Peptidase, Angiotensin Converting Enzyme; type: biochemical, Rabbit; conditions: assay year 2015
T4 construct: from tissue; host or cells: rabbit lung
T4 sequence (P12822 34-1310): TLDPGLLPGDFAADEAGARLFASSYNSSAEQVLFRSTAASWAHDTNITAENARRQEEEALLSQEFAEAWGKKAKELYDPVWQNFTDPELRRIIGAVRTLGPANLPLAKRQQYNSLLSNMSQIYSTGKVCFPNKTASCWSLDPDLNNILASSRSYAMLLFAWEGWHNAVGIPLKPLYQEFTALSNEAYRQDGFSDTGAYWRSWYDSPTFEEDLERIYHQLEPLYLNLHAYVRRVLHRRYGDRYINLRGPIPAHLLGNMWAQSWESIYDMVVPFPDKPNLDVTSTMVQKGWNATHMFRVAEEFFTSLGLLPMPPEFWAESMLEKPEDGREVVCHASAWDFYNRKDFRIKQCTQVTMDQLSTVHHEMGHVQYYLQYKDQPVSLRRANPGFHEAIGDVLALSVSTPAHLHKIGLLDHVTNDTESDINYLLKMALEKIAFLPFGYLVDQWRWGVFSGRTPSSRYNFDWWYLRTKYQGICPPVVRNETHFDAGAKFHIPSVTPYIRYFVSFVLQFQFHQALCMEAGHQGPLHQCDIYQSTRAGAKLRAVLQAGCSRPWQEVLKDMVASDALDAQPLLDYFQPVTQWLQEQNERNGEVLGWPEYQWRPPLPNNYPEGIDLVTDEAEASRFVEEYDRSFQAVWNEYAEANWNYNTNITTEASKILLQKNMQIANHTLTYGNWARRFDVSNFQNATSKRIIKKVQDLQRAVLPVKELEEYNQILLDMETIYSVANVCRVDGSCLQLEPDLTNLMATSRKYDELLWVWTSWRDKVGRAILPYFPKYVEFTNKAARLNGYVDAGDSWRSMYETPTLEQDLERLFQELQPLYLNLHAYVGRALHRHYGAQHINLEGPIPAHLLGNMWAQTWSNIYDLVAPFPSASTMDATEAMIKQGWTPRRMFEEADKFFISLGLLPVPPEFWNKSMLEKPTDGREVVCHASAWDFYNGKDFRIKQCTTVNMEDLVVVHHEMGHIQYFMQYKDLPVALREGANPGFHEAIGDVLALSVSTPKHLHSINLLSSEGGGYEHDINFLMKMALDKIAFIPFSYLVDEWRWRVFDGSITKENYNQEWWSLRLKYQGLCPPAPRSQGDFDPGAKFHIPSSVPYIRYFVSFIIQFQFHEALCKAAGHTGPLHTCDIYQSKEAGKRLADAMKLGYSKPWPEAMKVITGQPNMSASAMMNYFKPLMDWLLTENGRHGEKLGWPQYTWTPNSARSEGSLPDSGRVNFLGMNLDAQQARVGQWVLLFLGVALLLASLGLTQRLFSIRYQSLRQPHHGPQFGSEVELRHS
Procedure: The in vitro pharmacological studies were conducted by Eurofins PanLab (Taiwan) using the parameters shown in Table 13 with respect to appropriate literature references.

USP 21 (h) = molecular target: T5, USP 21 (h) (Homo sapiens, UniProt Q9UK80); assay: Epigenetic enzyme assay, Ubiquitin modifying enzymes; type: biochemical; conditions: 10 μM; read-out: % Inhibition of Control Values
T5 sequence (Q9UK80 1-565): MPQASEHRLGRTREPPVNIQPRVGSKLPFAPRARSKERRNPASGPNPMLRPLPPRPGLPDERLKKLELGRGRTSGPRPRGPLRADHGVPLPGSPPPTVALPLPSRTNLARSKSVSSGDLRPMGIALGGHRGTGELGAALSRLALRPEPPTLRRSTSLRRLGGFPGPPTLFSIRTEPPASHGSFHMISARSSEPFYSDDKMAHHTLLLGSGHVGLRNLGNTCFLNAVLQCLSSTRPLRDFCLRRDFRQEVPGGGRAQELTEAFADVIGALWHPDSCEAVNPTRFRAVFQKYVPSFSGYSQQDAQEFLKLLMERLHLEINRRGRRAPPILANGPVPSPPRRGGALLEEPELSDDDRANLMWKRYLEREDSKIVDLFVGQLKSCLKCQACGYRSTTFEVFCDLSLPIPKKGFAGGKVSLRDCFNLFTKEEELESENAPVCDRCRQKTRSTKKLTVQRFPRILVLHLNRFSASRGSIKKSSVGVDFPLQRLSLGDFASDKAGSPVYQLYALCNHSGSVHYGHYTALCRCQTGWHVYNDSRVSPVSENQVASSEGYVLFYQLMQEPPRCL

CYP2D6, sequence (P10635 whole entry): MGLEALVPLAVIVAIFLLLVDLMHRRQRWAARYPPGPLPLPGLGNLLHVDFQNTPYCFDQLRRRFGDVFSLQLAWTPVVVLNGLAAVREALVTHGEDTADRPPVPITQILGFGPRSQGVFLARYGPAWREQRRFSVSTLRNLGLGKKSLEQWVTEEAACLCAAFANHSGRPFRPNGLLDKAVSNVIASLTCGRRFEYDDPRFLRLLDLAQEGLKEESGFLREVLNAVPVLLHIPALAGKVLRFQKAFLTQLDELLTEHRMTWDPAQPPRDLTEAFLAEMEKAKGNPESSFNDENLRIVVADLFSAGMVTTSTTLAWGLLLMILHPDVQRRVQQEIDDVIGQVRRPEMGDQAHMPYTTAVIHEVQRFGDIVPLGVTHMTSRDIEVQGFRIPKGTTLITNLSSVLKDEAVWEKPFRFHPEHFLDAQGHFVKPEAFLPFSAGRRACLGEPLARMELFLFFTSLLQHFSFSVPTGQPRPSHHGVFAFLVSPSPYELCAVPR

| SMILES | inhibition at 1 µM (CYP2D6) | inhibition at 10 µM (CYP2D6) | inhibition at 10 µM (USP 10 (h)) | inhibition at 10 µM (JARID1C (h)) | % Inhibition of Control Values (MLL2(h) complex) | inhibition at 10 µM [1] | inhibition at 10 µM (pCAF(h)) | inhibition at 10 µM (DNMT1 (h)) | inhibition at 10 µM (PHF20(1) Tudor domain) | % Inhibition of Control Specific Binding (BRD4(2) (h) bromodomain; 10 μM) | inhibition at 10 µM (BRD4(2) (h) bromodomain; 10 μM) | pIC50 (BRD4(2) (h) bromodomain; Table 9, inhibition/concentration-response curve) | inhibition at 10 µM (CBX4 (h) chromodomain) | % control response at 10 µM [2] | inhibition at 10 µM (USP 21 (h)) | pIC50 (MLL2(h) complex; read-out: Reference IC50) |
| --- | --- | --- | --- | --- | --- | --- | --- | --- | --- | --- | --- | --- | --- | --- | --- | --- |
| CC(C)=CCC[C@H](CO)[C@@H]1CC[C@@H](C)c2c1cc(C)c(O)c2O [Compound 1, 7,8,18-trihydroxyserrulat-14-ene] | 12 to 21% | 45% | 7% | 49% | 6% | 22% | -25% | 10% | 7% | significant inhibitory activity | 76% | 5.25 | 25% | 0% | -18% | – |
| CC(C)=CCC[C@@H]1C(O)Oc2c(C)cc(O)c3c2[C@H]1CC[C@H]3C (stereo partly drawn) [Compound 2, 5,18-epoxyserrulat-14-en-8,18-diol] | 12 to 21% | 44% | 2% | -13% | 3% | 11% | -26% | 4% | 2% | – | 16% | – | 29% | -3% | 3% | – |
| CC(C)=CCC[C@@H]1COc2c(C)cc(O)c3c2[C@H]1CC[C@H]3C [Compound 3, 5,18-epoxy-8-hydroxyserrulat-14-ene] | – | – | -7% | 25% | −15% | 5% | -20% | -5% | 2% | – | 13% | – | 40% | -3% | 3% | – |
| CC(C)=CCC[C@H](C)[C@@H]1CC[C@@H](C)c2c1cc(C)c(O)c2O [Compound 4, 7,8-dihydroxyserrulat-14-ene] | 12 to 21% | 45% | – | – | – | – | – | – | – | – | – | – | – | – | – | – |
| Nc1ncnc2c1ncn2[C@@H]1O[C@H](CSCC[C@H](N)C(=O)O)[C@@H](O)[C@H]1O [SAH] | – | – | – | – | – | – | – | – | – | – | – | – | – | – | – | 4.62 |
